Laboratory results from ChEMBL document CHEMBL1137686, “Synthesis and anticonvulsant activity of new N-[(4-arylpiperazin-1-yl)-alkyl] derivatives of 3-phenyl-pyrrolidine-2,5-dione” (Eur J Med Chem, 2009).
Activity calls are given as the source filed them. The calls are words filed in the database; no cut-off is given here.

Legend:
Mus musculus [1] = assay: Anticonvulsant activity in ip dosed CF1 albino mouse assessed as inhibition of maximal electroshock-induced seizures after 4 hrs; type: functional
Mus musculus [2] = assay: Neurotoxicity in ip dosed CF1 albino mouse assessed as ability to maintain equilibrium for 1 min on […] after 0.5 hrs by rotarod test; type: toxicity, organism-based; conditions: in vivo
Mus musculus [3] = assay: Neurotoxicity in ip dosed CF1 albino mouse assessed as ability to maintain equilibrium for 1 min on […] after 4 hrs by rotarod test; type: toxicity, organism-based; conditions: in vivo
Mus musculus [4] = assay: Anticonvulsant activity in CF1 albino mouse assessed as inhibition of maximal electroshock-induced seizures at 300 mg/kg, ip after 0.5 hrs; type: functional, organism-based; design: dose 300 mg/kg
Mus musculus [5] = assay: Anticonvulsant activity in CF1 albino mouse assessed as inhibition of maximal electroshock-induced seizures at 300 mg/kg, ip after 4 hrs; type: functional, organism-based; design: dose 300 mg/kg
Mus musculus [6] = assay: Anticonvulsant activity in CF1 albino mouse assessed as protection against maximal electroshock-induced seizures at 30 mg/kg, po after 4 hrs; type: functional
Mus musculus [7] = assay: Anticonvulsant activity in CF1 albino mouse assessed as protection against maximal electroshock-induced seizures at 30 mg/kg, po after 2 hrs; type: functional
Mus musculus [8] = assay: Anticonvulsant activity in CF1 albino mouse assessed as protection against maximal electroshock-induced seizures at 30 mg/kg, po after 0.5 hrs; type: functional
Mus musculus [9] = assay: Neurotoxicity in CF1 albino mouse assessed as motor impairment at 30 mg/kg, po after 4 hrs by rotarod test; type: toxicity, organism-based; design: dose 30 mg/kg, route oral; conditions: in vivo
Mus musculus [10] = assay: Neurotoxicity in CF1 albino mouse assessed as motor impairment at 30 mg/kg, po after 2 hrs by rotarod test; type: toxicity, organism-based; design: dose 30 mg/kg, route oral; conditions: in vivo
Mus musculus [11] = assay: Anticonvulsant activity in CF1 albino mouse assessed as protection against maximal electroshock-induced seizures at 30 mg/kg, po after 1 hr; type: functional
Mus musculus [12] = assay: Neurotoxicity in CF1 albino mouse assessed as motor impairment at 30 mg/kg, po after 0.5 hrs by rotarod test; type: toxicity, organism-based; design: dose 30 mg/kg, route oral; conditions: in vivo
Mus musculus [13] = assay: Neurotoxicity in CF1 albino mouse assessed as motor impairment at 30 mg/kg, po after 0.25 hrs by rotarod test; type: toxicity, organism-based; design: dose 30 mg/kg, route oral; conditions: in vivo
Mus musculus [14] = assay: Neurotoxicity in CF1 albino mouse assessed as motor impairment at 30 mg/kg, po after 1 hr by rotarod test; type: toxicity, organism-based; design: dose 30 mg/kg, route oral; conditions: in vivo
Mus musculus [15] = assay: Neurotoxicity in CF1 albino mouse assessed as ability to maintain equilibrium for 1 min on […] at 300 mg/kg, ip after 0.5 hrs by rotarod test; type: toxicity, organism-based; design: dose 300 mg/kg, route intraperitoneal; conditions: in vivo
Mus musculus [16] = assay: Anticonvulsant activity in CF1 albino mouse assessed as protection against maximal electroshock-induced seizures at 30 mg/kg, po after 0.25 hrs; type: functional
Mus musculus [17] = assay: Neurotoxicity in CF1 albino mouse assessed as ability to maintain equilibrium for 1 min on […] at 300 mg/kg, ip after 4 hrs by rotarod test; type: toxicity, organism-based; design: dose 300 mg/kg, route intraperitoneal; conditions: in vivo
Mus musculus [18] = assay: Anticonvulsant activity in ip dosed CF1 albino mouse assessed as inhibition of maximal electroshock-induced seizures after 0.5 hrs; type: functional
Rattus norvegicus = assay: Anticonvulsant activity in po dosed rat assessed as inhibition of maximal electroshock-induced seizures; type: functional
Mus musculus [19] = assay: Neurotoxicity in CF1 albino mouse assessed as ability to grasp rotarod at 300 mg/kg, ip after 0.5 hrs by rotarod test; type: toxicity, organism-based; design: dose 300 mg/kg, route intraperitoneal; conditions: in vivo
[20] = Neurotoxicity in ip dosed CF1 albino mouse assessed as ability to maintain equilibrium for 1 min on […] by rotarod test; type: toxicity, organism-based; conditions: in vivo
Mus musculus [21] = assay: Anticonvulsant activity in ip dosed CF1 albino mouse assessed as inhibition of subcutaneous pentylenetetrazole-induced seizures; type: functional
Mus musculus [22] = assay: Anticonvulsant activity against maximal electroshock-induced seizures in ip dosed CF1 albino mouse assessed as time to peak effect; type: functional
Mus musculus [23] = assay: Anticonvulsant activity in ip dosed CF1 albino mouse assessed as inhibition of maximal electroshock-induced seizures; type: functional
Mus musculus [24] = organism: Mus musculus; assay: Protective index, ratio of TD50 for neurotoxicity in CF1 albino mouse to ED50 for inhibition of maximal electroshock-induced seizures in CF1 albino mouse; type: functional

Q: For `Cc1ccccc1C1CC(=O)N(CN2CCN(c3ccccc3)CC2)C1=O` (stereo not given), which Activity (Mus musculus [1]) is on record?
A: Its Activity is 300 mg/kg.

Q: And the Activity (Mus musculus [2])?
A: Its Activity is 100 mg/kg.

Q: And the Activity (Mus musculus [3])?
A: Its Activity is 300 mg/kg.

Q: What about the Activity (Mus musculus [4]) of the same compound?
A: Its Activity is “inactive”.

Q: Which Activity (Mus musculus [5]) does the source give for `COc1ccccc1N1CCN(CCCN2C(=O)CC(c3ccccc3C(F)(F)F)C2=O)CC1` (stereo not given) here?
A: The Activity was “inactive”.

Q: And the Activity (Mus musculus [2])?
A: The Activity was 100 mg/kg.

Q: And the Activity (Mus musculus [3])?
A: Its Activity is 300 mg/kg.

Q: And the Activity (Mus musculus [4])?
A: Its Activity is “inactive”.

Q: Which Activity (Mus musculus [6]) does the source give for `O=C1CC(c2ccccc2C(F)(F)F)C(=O)N1CN1CCN(c2ccccc2F)CC1` (stereo not given) here?
A: The Activity was 25%.

Q: And the Activity (Mus musculus [7])?
A: The Activity was “inactive”.

Q: And the Activity (Mus musculus [8])?
A: Its Activity is 25%.

Q: And the Activity (Mus musculus [9])?
A: The Activity was “Non-toxic”.

Q: And the Activity (Mus musculus [10])?
A: Its Activity is “Non-toxic”.

Q: What about the Activity (Mus musculus [11]) of the same compound?
A: Its Activity is 25%.

Q: What about the Activity (Mus musculus [1]) of the same compound?
A: Its Activity is 30 mg/kg.

Q: And the Activity (Mus musculus [2])?
A: Its Activity is 100 mg/kg.

Q: What about the Activity (Mus musculus [12]) of the same compound?
A: Its Activity is “Non-toxic”.

Q: And the Activity (Mus musculus [13])?
A: The Activity was “Non-toxic”.

Q: What about the Activity (Mus musculus [3]) of the same compound?
A: The Activity was 300 mg/kg.

Q: What about the Activity (Mus musculus [4]) of the same compound?
A: The Activity was “inactive”.

Q: And the Activity (Mus musculus [14])?
A: The Activity was “Non-toxic”.

Q: With `O=C1CC(c2ccccc2C(F)(F)F)C(=O)N1CCN1CCN(c2cccc(Cl)c2)CC1` (stereo not given) as the compound, how does the Activity (Mus musculus [6]) read?
A: Its Activity is “inactive”.

Q: What about the Activity (Mus musculus [15]) of the same compound?
A: The Activity was “Non-toxic”.

Q: What about the Activity (Mus musculus [16]) of the same compound?
A: Its Activity is “inactive”.

Q: And the Activity (Mus musculus [7])?
A: Its Activity is “inactive”.

Q: And the Activity (Mus musculus [8])?
A: Its Activity is “inactive”.

Q: What about the Activity (Mus musculus [9]) of the same compound?
A: Its Activity is “Non-toxic”.

Q: What about the Activity (Mus musculus [10]) of the same compound?
A: Its Activity is “Non-toxic”.

Q: What about the Activity (Mus musculus [17]) of the same compound?
A: The Activity was “Non-toxic”.

Q: And the Activity (Mus musculus [11])?
A: Its Activity is “inactive”.

Q: And the Activity (Mus musculus [1])?
A: The Activity was 100 mg/kg.

Q: What about the Activity (Mus musculus [12]) of the same compound?
A: The Activity was “Non-toxic”.

Q: What about the Activity (Mus musculus [13]) of the same compound?
A: The Activity was “Non-toxic”.

Q: And the Activity (Mus musculus [4])?
A: The Activity was “inactive”.

Q: And the Activity (Mus musculus [14])?
A: Its Activity is “Non-toxic”.

Q: What does the source list for `COc1ccccc1N1CCN(CCCN2C(=O)CC(c3ccccc3C)C2=O)CC1` (stereo not given)?
A: Activity (Mus musculus [17]): Non-toxic; Activity (Mus musculus [5]): inactive; Activity (Mus musculus [2]): 100 mg/kg; Activity (Mus musculus [4]): inactive

Q: For `O=C1CC(c2ccccc2C(F)(F)F)C(=O)N1CCCN1CCN(c2cccc(Cl)c2)CC1` (stereo not given), which Activity (Mus musculus [1]) is on record?
A: Its Activity is 100 mg/kg.

Q: What about the Activity (Mus musculus [2]) of the same compound?
A: Its Activity is 100 mg/kg.

Q: And the Activity (Mus musculus [3])?
A: The Activity was 300 mg/kg.

Q: And the Activity (Mus musculus [18])?
A: The Activity was 100 mg/kg.

Q: With `O=C1CC(c2ccccc2C(F)(F)F)C(=O)N1CCN1CCN(c2cccc(C(F)(F)F)c2)CC1` (stereo not given) as the compound, how does the Activity (Mus musculus [15]) read?
A: Its Activity is “Non-toxic”.

Q: What about the Activity (Mus musculus [17]) of the same compound?
A: Its Activity is “Non-toxic”.

Q: And the Activity (Mus musculus [5])?
A: Its Activity is “inactive”.

Q: And the Activity (Mus musculus [4])?
A: The Activity was “inactive”.

Q: Which ED50 (Rattus norvegicus) does the source give for `O=C1CC(c2ccccc2Cl)C(=O)N1CN1CCN(c2cccc(Cl)c2)CC1` (stereo not given) here?
A: The ED50 was 14.2 mg/kg.

Q: Which results are given for `O=C1CC(c2ccccc2C(F)(F)F)C(=O)N1CCN1CCN(c2ccccc2F)CC1` (stereo not given)?
A: Activity (Mus musculus [15]): Non-toxic; Activity (Mus musculus [17]): Non-toxic; Activity (Mus musculus [5]): inactive; Activity (Mus musculus [4]): inactive

Q: With `O=C1CC(c2ccccc2C(F)(F)F)C(=O)N1CCCN1CCN(c2ccccc2)CC1` (stereo not given) as the compound, how does the Activity (Mus musculus [17]) read?
A: Its Activity is “Non-toxic”.

Q: And the Activity (Mus musculus [5])?
A: Its Activity is “inactive”.

Q: And the Activity (Mus musculus [2])?
A: The Activity was 300 mg/kg.

Q: What about the Activity (Mus musculus [19]) of the same compound?
A: Its Activity is “Toxic”.

Q: And the Activity (Mus musculus [18])?
A: The Activity was 300 mg/kg.

Q: Which results are given for `Cc1ccccc1C1CC(=O)N(CCN2CCN(c3ccccc3F)CC2)C1=O` (stereo not given)?
A: Activity (Mus musculus [17]): Non-toxic; Activity (Mus musculus [1]): 300 mg/kg; Activity (Mus musculus [2]): 300 mg/kg; Activity (Mus musculus [4]): inactive

Q: Which Activity (Mus musculus [6]) does the source give for `O=C1CC(c2ccccc2C(F)(F)F)C(=O)N1CCCN1CCN(c2cccc(C(F)(F)F)c2)CC1` (stereo not given) here?
A: Its Activity is “inactive”.

Q: And the Activity (Mus musculus [16])?
A: The Activity was “inactive”.

Q: What about the Activity (Mus musculus [7]) of the same compound?
A: Its Activity is “inactive”.

Q: What about the Activity (Mus musculus [8]) of the same compound?
A: The Activity was 25%.

Q: What about the TD50 at 1 min [20] of the same compound?
A: The TD50 at 1 min was 360 mg/kg.

Q: What about the Activity (Mus musculus [9]) of the same compound?
A: Its Activity is “Non-toxic”.

Q: What about the ED50 (Mus musculus [21]) of the same compound?
A: The ED50 was > 350 mg/kg.

Q: And the Activity (Mus musculus [10])?
A: The Activity was “Non-toxic”.

Q: And the Activity (Mus musculus [11])?
A: The Activity was 25%.

Q: What about the Activity (Mus musculus [1]) of the same compound?
A: Its Activity is 100 mg/kg.

Q: And the Time (Mus musculus [22])?
A: The Time was 2 h.

Q: And the Activity (Mus musculus [2])?
A: Its Activity is 300 mg/kg.

Q: What about the ED50 (Mus musculus [23]) of the same compound?
A: The ED50 was 132 mg/kg.

Q: And the Activity (Mus musculus [12])?
A: Its Activity is “Non-toxic”.

Q: And the Activity (Mus musculus [13])?
A: The Activity was “Non-toxic”.

Q: And the Activity (Mus musculus [3])?
A: Its Activity is 300 mg/kg.

Q: And the Activity (Mus musculus [14])?
A: The Activity was “Non-toxic”.

Q: What about the Activity (Mus musculus [18]) of the same compound?
A: The Activity was 30 mg/kg.

Q: What about the “Ratio TD50/ED50” value (Mus musculus [24]) of the same compound?
A: Its value is 2.72.
